Legend:
LdtR = conditions: cited from earlier work
[1] = test system: S. meliloti strain SMP5 (1021-pBBR1MCS-5); type: cell-based, Sinorhizobium meliloti
LdtR Wild type = LdtR Wild type (Candidatus Liberibacter asiaticus, UniProt A0ABN4AZS1)
B. subtilis cells = type: cell-based, Bacillus subtilis
[2] = test system: S. meliloti strain SMP2B (ΔldtRSMc-pBBR1MCS-5::LdtR); type: cell-based
WT LdtR [3] = type: biochemical, Liberibacter asiaticus
WT LdtR [4] = type: binding, Liberibacter asiaticus
[5] = test system: WT LdtR, lacZ reporter in B. subtilis strain BS6; type: cell-based, Bacillus subtilis
[6] = test system: S. meliloti strain SMP2A (ΔldtRSMc-pBBR1MCS-5); type: cell-based
ST1710 = conditions: read-out: affinity value; cited from earlier work
[7] = molecular target: LdtR wild type (Liberibacter asiaticus); assay: SEC
[8] = test system: LdtR WT (Liberibacter asiaticus); assay: EMSA

Question: For `CCc1oc2ccccc2c1C(=O)c1cc(Br)c(O)c(Br)c1` [benzbromarone], which “effect on LdtR binding to DNA” value (LdtR) is on record?
Answer: inhibitors of LdtR binding to DNA

Question: What about the “Growth rate constant, k” value [1] of the same compound?
Answer: 0.044 ± 0.003 generations/h

Question: And the Mean generation time [1]?
Answer: 22.7 h

Question: What about the “increase of the duplication time on addition of benzbromarone” value [1] of the same compound?
Answer: 39%

Question: What about the N (LdtR Wild type) of the same compound?
Answer: 0.34 ± 0.08

Question: And the ΔG (LdtR Wild type)?
Answer: -31.4 kJ/mol

Question: What about the ΔH (LdtR Wild type) of the same compound?
Answer: -12.6 ± 4.18 kJ/mol

Question: And the ΔS (LdtR Wild type)?
Answer: 14.9 cal/mol/deg

Question: What about the “concentrations found to be toxic to the cells” value (B. subtilis cells) of the same compound?
Answer: higher than 5 μM

Question: And the “Growth rate constant, k” value [2]?
Answer: 0.045 ± 0.002 generations/h

Question: What about the Mean generation time [2] of the same compound?
Answer: 22.2 h

Question: What about the “increase of the duplication time on addition of benzbromarone” value [2] of the same compound?
Answer: 25%

Question: And the “excess of benzbromarone at which the LdtR:DNA complex is disrupted” value (WT LdtR [3])?
Answer: 10 fold excess

Question: And the “change in melting temperature (ΔTm)” value (WT LdtR [4])?
Answer: -1.8 ± 0.2 °C

Question: What about the “decrease of melting temperature” value (WT LdtR [4]) of the same compound?
Answer: 3.6 ± 0.2 °C

Question: And the “reduction of β-galactosidase activity” value [5]?
Answer: 40%

Question: What about the “Growth rate constant, k” value [6] of the same compound?
Answer: 0.042 ± 0.002 generations/h

Question: And the Mean generation time [6]?
Answer: 23.8 h

Question: Which Kd (ST1710) does the source give for `CC[n+]1c(-c2ccccc2)c2cc(N)ccc2c2ccc(N)cc21` [ethidium] here?
Answer: 13.7 µM

Question: For `CC[C@H](c1ccc(O)cc1)[C@@H](CC)c1ccc(O)cc1` [hexestrol], which “effect on LdtR binding to DNA” value (LdtR) is on record?
Answer: inhibitors of LdtR binding to DNA

Question: Which “effect on LdtR binding to DNA” value (LdtR) does the source give for `O=C(CCc1ccc(O)cc1)c1c(O)cc(O)cc1O` [phloretin] here?
Answer: inhibitors of LdtR binding to DNA

Question: For LdtR wild type (natural protein), which stoichiometry N [7] is on record?
Answer: 2

Question: With PldtP as the compound, how does the K half [8] read?
Answer: 200 nM
